Assay [1] deals with T1, human serotonin transporters (Homo sapiens, UniProt P31645).
T1 construct: expressed in transfected cells
Kind of assay: Serotonin transporter binding assay ([3H]-citalopram competition, HEK-hSERT cell membranes). The settings on record: 1 nM [3H]-citalopram, 1 hr at 25° C., read-out: SERT IC50. Put shortly: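 HEK-293 membranes stably expressing human SERT were incubated 1 hr at 25° C with 1 nM [3H]-citalopram and increasing test compound concentrations in 50 mM Tris pH 7.4, 120 mM NaCl, 5 mM KCl, then filtered. Non-specific binding was defined with 10 μM fluoxetine. IC50 is the displacement-curve midpoint; Ki via Cheng-Prusoff.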

Assay [2] addresses T2, neurokinin-1 (NK-1) receptor (Homo sapiens, UniProt P25103).
T2 construct: endogenously expresses the neurokinin-1 (NK-1) receptor; endogenous in cells; host or cells: U373 human glioblastoma-astrocytoma cells (membranes)
Nature of the assay: NK-1 Binding assay ([125I] Substance P competition, U373 cell membranes). Conditions: Bolton Hunter labeled [125I] Substance P, 30 min at 20° C. The procedure, abridged: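 U373 human glioblastoma-astrocytoma membranes (endogenous NK-1; 5–10 μg/well) competed against Bolton Hunter [125I] Substance P […] with drug at 10000–0.01 nM, 30 min at 20° C, in Tris-HCl pH 7.4 with 3 mM MnCl2 and protease inhibitors. Filtration binding; non-specific with 2 μM L-733,060. IC50 from displacement curve midpoint; Ki via Cheng–Prusoff.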

By IC50 is commonly meant the concentration that gives 50% inhibition.

T2 sequence (P25103 whole entry): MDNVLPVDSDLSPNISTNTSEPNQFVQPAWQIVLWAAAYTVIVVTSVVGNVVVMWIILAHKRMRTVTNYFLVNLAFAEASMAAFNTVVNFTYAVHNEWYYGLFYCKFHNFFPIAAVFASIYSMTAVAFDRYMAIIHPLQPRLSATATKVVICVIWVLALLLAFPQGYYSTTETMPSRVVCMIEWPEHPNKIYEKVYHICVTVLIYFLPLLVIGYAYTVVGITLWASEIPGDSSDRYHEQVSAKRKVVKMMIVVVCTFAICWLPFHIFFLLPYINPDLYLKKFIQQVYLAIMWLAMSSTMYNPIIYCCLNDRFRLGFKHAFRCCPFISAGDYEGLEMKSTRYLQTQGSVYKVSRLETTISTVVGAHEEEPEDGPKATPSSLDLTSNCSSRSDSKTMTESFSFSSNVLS
T1 sequence (P31645 whole entry): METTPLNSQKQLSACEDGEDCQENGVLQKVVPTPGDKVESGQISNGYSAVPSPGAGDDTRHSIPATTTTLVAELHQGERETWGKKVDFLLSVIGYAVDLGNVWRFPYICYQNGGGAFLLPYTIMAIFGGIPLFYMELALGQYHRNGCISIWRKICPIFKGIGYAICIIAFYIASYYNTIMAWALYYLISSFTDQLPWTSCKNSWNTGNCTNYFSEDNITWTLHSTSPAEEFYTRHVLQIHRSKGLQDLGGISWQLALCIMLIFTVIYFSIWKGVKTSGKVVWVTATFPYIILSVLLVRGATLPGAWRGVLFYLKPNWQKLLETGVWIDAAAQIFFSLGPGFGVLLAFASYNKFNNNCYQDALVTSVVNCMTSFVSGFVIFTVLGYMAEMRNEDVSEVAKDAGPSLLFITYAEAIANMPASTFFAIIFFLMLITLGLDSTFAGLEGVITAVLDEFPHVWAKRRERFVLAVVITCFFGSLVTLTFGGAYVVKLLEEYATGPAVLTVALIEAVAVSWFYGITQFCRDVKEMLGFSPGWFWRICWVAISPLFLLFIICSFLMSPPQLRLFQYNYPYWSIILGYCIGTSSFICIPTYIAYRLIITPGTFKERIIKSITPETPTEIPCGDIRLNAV

Turning to `NCCC(O)(CSCc1cc(C(F)(F)F)cc(C(F)(F)F)c1)c1ccccc1` (centres unmarked) [Example 80, 1-(3,5-bis(trifluoromethyl)benzylthio)-4-amino-2-phenylbutane-2-ol], the IC50 lay within 1 to 100 nM in assay [1] and 100 to 300 nM in assay [2].

Values taken from patent publication US7179926B2, “Aryloxyalkylamine NK-1/SSRI inhibitors” (Bristol-Myers Squibb Company, priority 2004, dated 2007).
